# Data: patent US20260293899A1 (priority 2023, published 2026)
# Legend:
# Phytophthora infestans = format: in vivo; settings: 200 ppm; tomato leaf disks; preventative, inoculated 1 day after application; assessed 5-7 days after application
# Plasmopara viticola = format: in vivo; settings: 200 ppm; grape vine leaf disks; preventative, inoculated 1 day after application; assessed 6-8 days after application
# Pythium ultimum = assay: Pythium ultimum/Liquid Culture (Seedling Damping Off); format: cell-based; settings: Globisporangium ultimum, read-out: control of Pythium ultimum (inhibition of growth, photometric)
SMILES,control of Phytophthora infestans (percent disease control compared to untreated) (Phytophthora infestans),control of Plasmopara viticola (percent disease control compared to untreated) (Plasmopara viticola),inhibition at 20 ppm (Pythium ultimum) [%]
"COC(=O)Nc1ccc(-c2cnc3c(C)cc(C(=O)N(Cc4cnn(C)c4)c4ccc(F)c(OC)c4)cn23)cn1 [Compound 1, methyl N-[5-[6-[(4-fluoro-3-methoxy-phenyl)-[(1-methylpyrazol-4-yl)methyl]carbamoyl]-8-methyl-imidazo[1,2-a]pyridin-3-yl]-2-pyridyl]carbamate]",at least 80%,at least 80%,≥ 80
"COC(=O)Nc1ccc(-c2cnc3ccc(C(=O)N(Cc4cnn(C)c4)c4ccc(F)c(OC)c4)cn23)cn1 [Compound 2, methyl N-[5-[6-[(4-fluoro-3-methoxy-phenyl)-[(1-methylpyrazol-4-yl)methyl]carbamoyl]imidazo[1,2-a]pyridin-3-yl]-2-pyridyl]carbamate]",at least 80%,at least 80%,≥ 80
"COC(=O)Nc1ccc(-c2cnc3ccc(C(=O)N(Cc4ccco4)c4ccc(Cl)cc4)cn23)cn1 [Compound 6, methyl N-[5-[6-[(4-chlorophenyl)-(2-furylmethyl)carbamoyl]imidazo[1,2-a]pyridin-3-yl]-2-pyridyl]carbamate]",at least 80%,,≥ 80
"COC(=O)Nc1ccc(-c2cnc3ccc(C(=O)N(Cc4ccccc4)c4ccc(F)cc4)cn23)cn1 [Compound 7, methyl N-[5-[6-[benzyl-(4-fluorophenyl)carbamoyl]imidazo[1,2-a]pyridin-3-yl]-2-pyridyl]carbamate]",,,≥ 80
"COC(=O)Nc1ccc(-c2cnc3ccc(C(=O)N(Cc4cnn(C)c4)c4ccc(F)cc4)cn23)cn1 [Compound 8, methyl N-[5-[6-[(4-fluorophenyl)-[(1-methylpyrazol-4-yl)methyl]carbamoyl]imidazo[1,2-a]pyridin-3-yl]-2-pyridyl]carbamate]",at least 80%,at least 80%,≥ 80
